{"source": "PubChem BioAssay AID2060513", "about": "(Molecular Pharmacology Branch, DTP, NCI, 2025)", "test_system": "299254-011-R-J1-PDC complex spheroids viability", "experiment": "Anticancer human tumor 299254-011-R-J1-PDC patient-derived melanoma cell line growth inhibition [GQUAD]", "details": "for IC50: curve of first compound; for viability, T/C: stronger effect = lower value", "summary_of_the_method": "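Tumor cells were grown as complex spheroids with HUVEC endothelial cells and mesenchymal stem cells as stroma. G-quadruplex stabilizers were combined with targeted agents over half-log dilutions from near the clinical Cmax, or from 10 microM.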", "key": {"[1]": {"details": "second compound 0.0316 µM, first compound 0.0316 µM"}, "[2]": {"details": "second compound 0.0316 µM, first compound 0.1 µM"}, "[3]": {"details": "second compound 0.0316 µM, first compound 0.316 µM"}, "[4]": {"details": "second compound 0.0316 µM, first compound 1 µM"}, "[5]": {"details": "second compound 0.0316 µM, first compound 3.16 µM"}, "[6]": {"details": "second compound 0.0316 µM, first compound 10 µM"}, "[7]": {"details": "second compound 0.1 µM, first compound 0.0316 µM"}, "[8]": {"details": "second compound 0.1 µM, first compound 0.1 µM"}, "[9]": {"details": "second compound 0.1 µM, first compound 0.316 µM"}, "[10]": {"details": "second compound 0.1 µM, first compound 1 µM"}, "[11]": {"details": "second compound 0.1 µM, first compound 3.16 µM"}, "[12]": {"details": "second compound 0.1 µM, first compound 10 µM"}, "[13]": {"details": "second compound 0.316 µM, first compound 0.0316 µM"}, "[14]": {"details": "second compound 0.316 µM, first compound 0.1 µM"}, "[15]": {"details": "second compound 0.316 µM, first compound 0.316 µM"}, "[16]": {"details": "second compound 0.316 µM, first compound 1 µM"}, "[17]": {"details": "second compound 0.316 µM, first compound 3.16 µM"}, "[18]": {"details": "second compound 0.316 µM, first compound 10 µM"}, "[19]": {"details": "second compound 1 µM, first compound 0.0316 µM"}, "[20]": {"details": "second compound 1 µM, first compound 0.1 µM"}, "[21]": {"details": "second compound 1 µM, first compound 0.316 µM"}, "[22]": {"details": "second compound 1 µM, first compound 1 µM"}, "[23]": {"details": "second compound 1 µM, first compound 3.16 µM"}, "[24]": {"details": "second compound 1 µM, first compound 10 µM"}, "[25]": {"details": "second compound 3.16 µM, first compound 0.0316 µM"}, "[26]": {"details": "second compound 3.16 µM, first compound 0.1 µM"}, "[27]": {"details": "second compound 3.16 µM, first compound 0.316 µM"}, "[28]": {"details": "second compound 3.16 µM, first compound 1 µM"}, "[29]": {"details": "second compound 3.16 µM, first compound 3.16 µM"}, "[30]": {"details": "second compound 3.16 µM, first compound 10 µM"}, "[31]": {"details": "second compound 10 µM, first compound 0.0316 µM"}, "[32]": {"details": "second compound 10 µM, first compound 0.1 µM"}, "[33]": {"details": "second compound 10 µM, first compound 0.316 µM"}, "[34]": {"details": "second compound 10 µM, first compound 1 µM"}, "[35]": {"details": "second compound 10 µM, first compound 3.16 µM"}, "[36]": {"details": "second compound 10 µM, first compound 10 µM"}}, "data": [{"compound": "CC1COCCN1c1cc(-c2ccnn2C)c2ccnc(-c3ccn[nH]3)c2n1", "note": "(centres undefined) + Cc1[nH]c2ccc(F)cc2c1-c1nc2c3cccnc3c3ncccc3c2[nH]1;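 also: spheroids exposed to the agents for seven days before readout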;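 as to viability, T/C: percent viability relative to DMSO vehicle control wells = 100%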", "values": [{"measurement": "IC50", "setting": "second compound 0.0316 µM", "value": 180, "unit": "nM"}, {"measurement": "IC50", "setting": "second compound 0.1 µM", "value": 177, "unit": "nM"}, {"measurement": "IC50", "setting": "second compound 0.316 µM", "value": 245, "unit": "nM"}, {"measurement": "IC50", "setting": "second compound 1 µM", "value": 201, "unit": "nM"}, {"measurement": "IC50", "setting": "second compound 3.16 µM", "value": 187, "unit": "nM"}, {"measurement": "IC50", "setting": "second compound 10 µM", "value": 88.9, "unit": "nM"}, {"measurement": "viability, T/C", "setting": "[1]", "value": 111, "unit": "%"}, {"measurement": "viability, T/C", "setting": "[2]", "value": 65, "unit": "%"}, {"measurement": "viability, T/C", "setting": "[3]", "value": 36.1, "unit": "%"}, {"measurement": "viability, T/C", "setting": "[4]", "value": 19.6, "unit": "%"}, {"measurement": "viability, T/C", "setting": "[5]", "value": 21.5, "unit": "%"}, {"measurement": "viability, T/C", "setting": "[6]", "value": 13.1, "unit": "%"}, {"measurement": "viability, T/C", "setting": "[7]", "value": 80.3, "unit": "%"}, {"measurement": "viability, T/C", "setting": "[8]", "value": 70.3, "unit": "%"}, {"measurement": "viability, T/C", "setting": "[9]", "value": 29.1, "unit": "%"}, {"measurement": "viability, T/C", "setting": "[10]", "value": 21.6, "unit": "%"}, {"measurement": "viability, T/C", "setting": "[11]", "value": 17, "unit": "%"}, {"measurement": "viability, T/C", "setting": "[12]", "value": 12.9, "unit": "%"}, {"measurement": "viability, T/C", "setting": "[13]", "value": 90, "unit": "%"}, {"measurement": "viability, T/C", "setting": "[14]", "value": 88.4, "unit": "%"}, {"measurement": "viability, T/C", "setting": "[15]", "value": 38.8, "unit": "%"}, {"measurement": "viability, T/C", "setting": "[16]", "value": 22.4, "unit": "%"}, {"measurement": "viability, T/C", "setting": "[17]", "value": 14.2, "unit": "%"}, {"measurement": "viability, T/C", "setting": "[18]", "value": 15, "unit": "%"}, {"measurement": "viability, T/C", "setting": "[19]", "value": 93.1, "unit": "%"}, {"measurement": "viability, T/C", "setting": "[20]", "value": 70.4, "unit": "%"}, {"measurement": "viability, T/C", "setting": "[21]", "value": 36.5, "unit": "%"}, {"measurement": "viability, T/C", "setting": "[22]", "value": 21.9, "unit": "%"}, {"measurement": "viability, T/C", "setting": "[23]", "value": 16.4, "unit": "%"}, {"measurement": "viability, T/C", "setting": "[24]", "value": 17.4, "unit": "%"}, {"measurement": "viability, T/C", "setting": "[25]", "value": 84.5, "unit": "%"}, {"measurement": "viability, T/C", "setting": "[26]", "value": 71.8, "unit": "%"}, {"measurement": "viability, T/C", "setting": "[27]", "value": 31.8, "unit": "%"}, {"measurement": "viability, T/C", "setting": "[28]", "value": 14.5, "unit": "%"}, {"measurement": "viability, T/C", "setting": "[29]", "value": 12.2, "unit": "%"}, {"measurement": "viability, T/C", "setting": "[30]", "value": 15.2, "unit": "%"}, {"measurement": "viability, T/C", "setting": "[31]", "value": 74.1, "unit": "%"}, {"measurement": "viability, T/C", "setting": "[32]", "value": 47, "unit": "%"}, {"measurement": "viability, T/C", "setting": "[33]", "value": 26.7, "unit": "%"}, {"measurement": "viability, T/C", "setting": "[34]", "value": 17.4, "unit": "%"}, {"measurement": "viability, T/C", "setting": "[35]", "value": 12.1, "unit": "%"}, {"measurement": "viability, T/C", "setting": "[36]", "value": 15.4, "unit": "%"}]}, {"compound": "C=CC(=O)N1CCN(c2nc(=O)n(-c3c(C)ccnc3C(C)C)c3nc(-c4c(O)cccc4F)c(F)cc23)C(C)C1", "note": "(centres undefined) + Cc1cnc(CNC(=O)c2c(=O)c3ccc(N4CCCN(C)CC4)nc3n3c2sc2ccccc23)cn1", "values": [{"measurement": "IC50", "setting": "second compound 0.0316 µM", "value": "> 10000", "unit": "nM"}, {"measurement": "IC50", "setting": "second compound 0.1 µM", "value": "> 10000", "unit": "nM"}, {"measurement": "IC50", "setting": "second compound 0.316 µM", "value": "> 10000", "unit": "nM"}, {"measurement": "IC50", "setting": "second compound 1 µM", "value": "> 10000", "unit": "nM"}, {"measurement": "IC50", "setting": "second compound 3.16 µM", "value": "> 10000", "unit": "nM"}, {"measurement": "IC50", "setting": "second compound 10 µM", "value": "< 31.6", "unit": "nM"}, {"measurement": "viability, T/C", "setting": "[1]", "value": 73.3, "unit": "%"}, {"measurement": "viability, T/C", "setting": "[2]", "value": 71.1, "unit": "%"}, {"measurement": "viability, T/C", "setting": "[3]", "value": 69.3, "unit": "%"}, {"measurement": "viability, T/C", "setting": "[4]", "value": 58.3, "unit": "%"}, {"measurement": "viability, T/C", "setting": "[5]", "value": 59.4, "unit": "%"}, {"measurement": "viability, T/C", "setting": "[6]", "value": 76.8, "unit": "%"}, {"measurement": "viability, T/C", "setting": "[7]", "value": 67.8, "unit": "%"}, {"measurement": "viability, T/C", "setting": "[8]", "value": 74.9, "unit": "%"}, {"measurement": "viability, T/C", "setting": "[9]", "value": 64.1, "unit": "%"}, {"measurement": "viability, T/C", "setting": "[10]", "value": 57.6, "unit": "%"}, {"measurement": "viability, T/C", "setting": "[11]", "value": 60.7, "unit": "%"}, {"measurement": "viability, T/C", "setting": "[12]", "value": 78.2, "unit": "%"}, {"measurement": "viability, T/C", "setting": "[13]", "value": 93, "unit": "%"}, {"measurement": "viability, T/C", "setting": "[14]", "value": 72.9, "unit": "%"}, {"measurement": "viability, T/C", "setting": "[15]", "value": 60.8, "unit": "%"}, {"measurement": "viability, T/C", "setting": "[16]", "value": 67.4, "unit": "%"}, {"measurement": "viability, T/C", "setting": "[17]", "value": 65.1, "unit": "%"}, {"measurement": "viability, T/C", "setting": "[18]", "value": 70.3, "unit": "%"}, {"measurement": "viability, T/C", "setting": "[19]", "value": 73.8, "unit": "%"}, {"measurement": "viability, T/C", "setting": "[20]", "value": 65.3, "unit": "%"}, {"measurement": "viability, T/C", "setting": "[21]", "value": 65.2, "unit": "%"}, {"measurement": "viability, T/C", "setting": "[22]", "value": 67.3, "unit": "%"}, {"measurement": "viability, T/C", "setting": "[23]", "value": 83.7, "unit": "%"}, {"measurement": "viability, T/C", "setting": "[24]", "value": 61.2, "unit": "%"}, {"measurement": "viability, T/C", "setting": "[25]", "value": 76.3, "unit": "%"}, {"measurement": "viability, T/C", "setting": "[26]", "value": 78.9, "unit": "%"}, {"measurement": "viability, T/C", "setting": "[27]", "value": 63.5, "unit": "%"}, {"measurement": "viability, T/C", "setting": "[28]", "value": 69.8, "unit": "%"}, {"measurement": "viability, T/C", "setting": "[29]", "value": 74.6, "unit": "%"}, {"measurement": "viability, T/C", "setting": "[30]", "value": 52.9, "unit": "%"}, {"measurement": "viability, T/C", "setting": "[31]", "value": 0.4, "unit": "%"}, {"measurement": "viability, T/C", "setting": "[32]", "value": 0.46, "unit": "%"}, {"measurement": "viability, T/C", "setting": "[33]", "value": 8.66, "unit": "%"}, {"measurement": "viability, T/C", "setting": "[34]", "value": 0.41, "unit": "%"}, {"measurement": "viability, T/C", "setting": "[35]", "value": 0.41, "unit": "%"}, {"measurement": "viability, T/C", "setting": "[36]", "value": 0.36, "unit": "%"}]}]}
